This is an account of results in patent US20260078130A1, “NAMPT MODULATORS, PREPARATIONS, AND USES THEREOF” (SIRONAX LTD., priority 2022, published 2026).

Usually EC50 stands for the midpoint of the concentration-response curve.

The target in the test is T1, human enzyme NAMPT (full length) (Homo sapiens, UniProt P43490).
T1 construct: human enzyme NAMPT (full length)
Briefly: NMN fluorescence biochemical assay (stimulation of NMN synthesis by NAMPT). As to conditions: for EC50: concentration giving half-maximal activation, read-out: Enzymatic EC50; for Enzymatic Emax: fold change of maximal activation compared to DMSO. As for the experimental part:
Certain compounds described herein were assayed for their ability to stimulate the synthesis of nicotinamide mononucleotide (NMN) by human enzyme NAMPT (full length). The enzymatic assay was performed in a 384-well plate using a TMD buffer (50 mM Tris-HCl, 10 mM MgCl2, 2 mM DTT, pH 7.5). Purified NAMPT (100 nM) was pre-incubated with 0.2 μL. DMSO solution of the test compound (with a series of concentrations) in 10 μL TMD buffer for 15 min at 37° C. The reaction was initiated by adding 10 μL solution of NAM (50 μM), PRPP (100 μM), and ATP (4 mM) in TMD buffer. After 1 h of incubation at 37 T, an aliquot (20 μL) of the NMN-containing sample was sequentially mixed with 5 μL of 20% acetophenone (in DMSO) and 5 μL of 2M KOH. The mixture was placed on ice for 10 min. Next, 22.5 μL of 100% formic acid was added to each sample, vortexed, and then incubated at 37° C. for 20 min. Fluorescence (Ex/Em=382/445 nm) was measured using an Envision plate reader. The potency measurements for the test compounds were quantified and represented as EC50 (concentration of a compound that gives half-maximal activation) and Emax (fold change of a compound's maximal activation compared to DMSO).

Setting [1] is: NMN fluorescence assay, purified human NAMPT 100 nM.
[2] abbreviates: NMN synthesis by purified human NAMPT (100 nM).

Like-named read-outs stand apart in the source and are kept apart here. Some results are limits rather than exact numbers.

T1 sequence (P43490 whole entry): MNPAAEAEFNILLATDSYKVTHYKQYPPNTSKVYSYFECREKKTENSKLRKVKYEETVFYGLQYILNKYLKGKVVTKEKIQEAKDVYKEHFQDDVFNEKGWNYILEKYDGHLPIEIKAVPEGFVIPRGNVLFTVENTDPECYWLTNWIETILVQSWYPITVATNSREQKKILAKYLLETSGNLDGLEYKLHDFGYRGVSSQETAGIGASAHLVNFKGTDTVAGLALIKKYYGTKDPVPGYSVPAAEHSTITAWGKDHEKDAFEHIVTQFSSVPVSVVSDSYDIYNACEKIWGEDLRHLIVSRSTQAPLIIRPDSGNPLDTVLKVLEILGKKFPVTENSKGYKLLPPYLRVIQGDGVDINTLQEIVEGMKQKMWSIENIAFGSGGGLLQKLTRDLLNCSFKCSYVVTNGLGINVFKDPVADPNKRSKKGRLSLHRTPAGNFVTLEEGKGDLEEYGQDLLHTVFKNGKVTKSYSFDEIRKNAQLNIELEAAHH

For the compound `Cc1onc(C#N)c1C(O)C1c2ccccc2C(=O)N1Cc1ccc2[nH]nnc2c1` (centres unmarked) [Compound 374, 4-((2-((1H-benzo[d][1,2,3]triazol-5-yl)methyl)-3-oxoisoindolin-1-yl)(hydroxy)methyl)-5-methylisoxazole-3-carbonitrile], the “Enzymatic Emax” value is reported as “B (3≥B>2)”. Also, under setting [1], the half-maximal effective concentration (EC50) was 0.5 to 5 µM.

Regarding `O=C1c2ccccc2C(Cc2ncccc2Br)N1CCNc1c[nH]nn1` (centres unmarked) [Compound 456, 2-(2-((1H-1,2,3-triazol-4-yl)amino)ethyl)-3-((3-bromopyridin-2-yl)methyl)isoindolin-1-one], the “Enzymatic Emax” value was “C (2≥C)”. Also, the EC50 under setting [1] was no less than 5 µM.

Take `Cc1ccnnc1CC1c2ccccc2C(=O)N1Cc1ccc2[nH]c(=O)oc2c1` (centres unmarked) [Compound 261, 6-((1-((4-methylpyridazin-3-yl)methyl)-3-oxoisoindolin-2-yl)methyl)benzo[d]oxazol-2(3H)-one]: the “Enzymatic Emax” value is “A (A>3)”. For the same compound, under setting [2], the 50% effective concentration (EC50) was 0.5 to 5 µM.

With `CCn1c2ccccc2c(=O)n1Cc1ccc(O)cc1` [Compound 24, 1-ethyl-2-(4-hydroxybenzyl)-1,2-dihydro-3H-indazol-3-one], the “Enzymatic Emax” value is on record as “A (A>3)”. The EC50 under setting [2] is no less than 5 µM.

For `O=C1c2ccccc2C(Cc2ncccc2Br)N1Cc1ccc2[nH]c(=O)ncc2c1` (centres unmarked) [Compound 348, 6-((1-((3-bromopyridin-2-yl)methyl)-3-oxoisoindolin-2-yl)methyl)quinazolin-2(1H)-one], the “Enzymatic Emax” value is recorded as “C (2≥C)”. Moreover, the 50% effective concentration (EC50) under setting [1] was in the range of 0.5 to 5 µM.

Consider `Cc1ncccc1CC1c2ccccc2C(=O)N1Cc1ccc2[nH]c(=O)oc2c1` (centres unmarked) [Compound 165, 6-((1-((2-methylpyridin-3-yl)methyl)-3-oxoisoindolin-2-yl)methyl)benzo[d]oxazol-2(3H)-one], for which the “Enzymatic Emax” value was “B (3≥B>2)”. Besides, the EC50 under setting [2] is 0.5 to 5 µM.

Turning to `O=C1c2ccccc2C(Cc2ncccc2Br)N1[C@H]1C[C@H](c2c[nH]nn2)C1` (some centres unmarked) [Compound 403, 2-((1r,3r)-3-(1H-1,2,3-triazol-4-yl)cyclobutyl)-3-((3-bromopyridin-2-yl)methyl)isoindolin-1-one], the “Enzymatic Emax” value was “C (2≥C)”. For the same compound, the EC50 under setting [1] was no less than 5 µM.

In the case of `Cn1ncc(Cl)c1C[C@@H]1c2ccccc2C(=O)N1C/C=C/c1c[nH]nn1` [Compound 313, (R,E)-2-(3-(1H-1,2,3-triazol-4-yl)allyl)-3-((4-chloro-1-methyl-1H-pyrazol-5-yl)methyl)isoindolin-1-one], the “Enzymatic Emax” value is on record as “C (2≥C)”. Also, the EC50 under setting [2] was no less than 5 µM.

As for `O=C1c2ccccc2C(Cc2ncccc2Br)N1Cc1ccn2cnnc2c1` (centres unmarked) [Compound 239, 2-([1,2,4]triazolo[4,3-a]pyridin-7-ylmethyl)-3-((3-bromopyridin-2-yl)methyl)isoindolin-1-one], the “Enzymatic Emax” value is recorded as “B (3≥B>2)”. In addition, the EC50 under setting [2] is no less than 5 µM.

Consider `O=C1c2ccccc2C(Cc2ncccc2Br)N1CC1CC2(CC(O)C2)C1` (centres unmarked) [Compound 321, 3-((3-bromopyridin-2-yl)methyl)-2-((6-hydroxyspiro[3.3]heptan-2-yl)methyl) isoindolin-1-one], for which the “Enzymatic Emax” value was “B (3≥B>2)”. In addition, the 50% effective concentration (EC50) under setting [1] lay within 0.5 to 5 µM.

In the case of `O=C1c2ccccc2C(Cc2nn(C(CO)CO)cc2Cl)N1Cc1ccc2[nH]nnc2c1` (centres unmarked) [Compound 363, 2-((1H-benzo[d][1,2,3]triazol-5-yl)methyl)-3-((4-chloro-1-(1,3-dihydroxypropan-2-yl)-1H-pyrazol-3-yl)methyl)isoindolin-1-one], the “Enzymatic Emax” value is recorded as “B (3≥B>2)”. For the same compound, the EC50 under setting [1] was in the range of 0.5 to 5 µM.

`Cc1cccnc1C[C@@H]1c2ccccc2C(=O)N1Cc1ccc2[nH]c(=O)oc2c1` [Compound 177, (R)-6-((1-((3-methylpyridin-2-yl)methyl)-3-oxoisoindolin-2-yl)methyl)benzo[d]oxazol-2(3H)-one]: the “Enzymatic Emax” value was “C (2≥C)”. Moreover, the 50% effective concentration (EC50) under setting [2] was no less than 5 µM.

With `Cn1ncc(Cl)c1CC1c2ccccc2C(=O)N1CC1CC2(CN=C(NC#N)O2)C1` (centres unmarked) [Compound 520, N-(2-((1-((4-chloro-1-methyl-1H-pyrazol-5-yl)methyl)-3-oxoisoindolin-2-yl)methyl)-5-oxa-7-azaspiro[3.4]oct-6-en-6-yl)cyanamide], the “Enzymatic Emax” value is “C (2≥C)”. Besides, under setting [1], the half-maximal effective concentration (EC50) was no less than 5 µM.

Regarding `O=C1c2ccccc2C(Cc2ncccc2Br)N1Cc1ccc2[nH]c(Cl)nc2c1` (centres unmarked) [Compound 255, 3-((3-bromopyridin-2-yl)methyl)-2-((2-chloro-1H-benzo[d]imidazol-5-yl)methyl) isoindolin-1-one], the “Enzymatic Emax” value is on record as “A (A>3)”. Further, under setting [2], the 50% effective concentration (EC50) lay within 0.5 to 5 µM.

On to `CN(C)c1ccc2c(c1)C(=O)N(Cc1ccc(O)cc1)C2` [Compound 305, 6-(dimethylamino)-2-(4-hydroxybenzyl) isoindolin-1-one], for which the “Enzymatic Emax” value is given as “C (2≥C)”. Besides, the half-maximal effective concentration (EC50) under setting [2] is no less than 5 µM.

In the case of `Cn1ncc(Cl)c1CC1c2ccccc2C(=O)N1CC1CC2(C1)OC(=O)NC2=O` (centres unmarked) [Compound 587, 2-((1-((4-chloro-1-methyl-1H-pyrazol-5-yl)methyl)-3-oxoisoindolin-2-yl)methyl)-5-oxa-7-azaspiro[3.4]octane-6,8-dione], the “Enzymatic Emax” value is recorded as “C (2≥C)”. Besides, under setting [1], the EC50 was no less than 5 µM.

Take `Cn1nc(Cl)c(Cl)c1CC1c2ccccc2C(=O)N1C[C@H]1C[C@@]2(CNC(=O)O2)C1` (some centres unmarked) [Compound 499, (2s,4s)-2-((1-((3,4-dichloro-1-methyl-1H-pyrazol-5-yl)methyl)-3-oxoisoindolin-2-yl)methyl)-5-oxa-7-azaspiro[3.4]octan-6-one]: the “Enzymatic Emax” value was “B (3≥B>2)”. Further, the EC50 under setting [1] was less than 0.5 µM.

Turning to `CC(=O)c1ccc(CN2C(=O)c3ccccc3C2Cc2c(Cl)cnn2C)cc1` (centres unmarked) [Compound 584, 2-(4-acetylbenzyl)-3-((4-chloro-1-methyl-1H-pyrazol-5-yl)methyl)isoindolin-1-one], the “Enzymatic Emax” value is reported as “B (3≥B>2)”. Also, under setting [1], the EC50 fell in the range of 0.5 to 5 µM.

With `N#Cc1cccc(CC2c3ccccc3C(=O)N2Cc2ccc3[nH]c(=O)oc3c2)n1` (centres unmarked) [Compound 219, 6-((3-oxo-2-((2-oxo-2,3-dihydrobenzo[d]oxazol-6-yl)methyl)isoindolin-1-yl)methyl)picolinonitrile], the “Enzymatic Emax” value is recorded as “B (3≥B>2)”. Also, the concentration for a half-maximal effect (EC50) under setting [2] was 0.5 to 5 µM.

`COc1ccc(CN2C(Cc3c(Cl)cnn3C)c3ccccc3S2(=O)=O)cn1` (centres unmarked) [Compound 642, 3-((4-chloro-1-methyl-1H-pyrazol-5-yl)methyl)-2-((6-methoxypyridin-3-yl)methyl)-2,3-dihydrobenzo[d]isothiazole 1,1-dioxide]: the “Enzymatic Emax” value was “B (3≥B>2)”. Further, the EC50 under setting [1] is no less than 5 µM.

In the case of `Cn1ncc(Cl)c1CC1c2cccc(CC#N)c2C(=O)N1CC1CC2(CNC(=O)O2)C1` (centres unmarked) [Compound 432, 2-(1-((4-chloro-1-methyl-1H-pyrazol-5-yl)methyl)-3-oxo-2-((6-oxo-5-oxa-7-azaspiro[3.4]octan-2-yl)methyl)isoindolin-4-yl)acetonitrile], the “Enzymatic Emax” value is given as “B (3≥B>2)”. The EC50 under setting [1] is no less than 5 µM.

`O=C1c2ccccc2C(Cc2ncccc2Br)N1C/C=C/c1n[nH]c(=O)o1` (centres unmarked) [Compound 458, (E)-5-(3-(1-((3-bromopyridin-2-yl)methyl)-3-oxoisoindolin-2-yl)prop-1-en-1-yl)-1,3,4-oxadiazol-2(3H)-one]: the “Enzymatic Emax” value is “B (3≥B>2)”. The 50% effective concentration (EC50) under setting [1] is no less than 5 µM.
